The values below come from PubChem BioAssay AID651829 (Broad Institute, 2012).

Molecules are shown by their SMILES. Where “and” joins values, the source holds several entries; their conditions need not be identical. Equal values may be shown once. Calls of active or inactive are those of the source.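 The calls were made as follows: active = max delta Tm melting temperature shift above 1 degree C at some tested dose; inactive = the rest.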

The target in one assay is Kelch-like ECH-associated protein 1 (Homo sapiens) (UniProt Q14145). As to the kind of experiment: thermal stabilisation of Keap1 Kelch domain – biophysical, thermal shift, RT-PCR instrument, dry powder, orthogonal assay for Keap1-Nrf2 interaction inhibitor project, dose response (AID 651829). As to conditions: Recombinant Keap1 Kelch domain, Sypro Orange, at 0.08 µM, top dose 10 µM, stronger effect = higher value.
Kelch-like ECH-associated protein 1 (Homo sapiens), sequence (Q14145 whole entry, looked up, the tested form may be a part): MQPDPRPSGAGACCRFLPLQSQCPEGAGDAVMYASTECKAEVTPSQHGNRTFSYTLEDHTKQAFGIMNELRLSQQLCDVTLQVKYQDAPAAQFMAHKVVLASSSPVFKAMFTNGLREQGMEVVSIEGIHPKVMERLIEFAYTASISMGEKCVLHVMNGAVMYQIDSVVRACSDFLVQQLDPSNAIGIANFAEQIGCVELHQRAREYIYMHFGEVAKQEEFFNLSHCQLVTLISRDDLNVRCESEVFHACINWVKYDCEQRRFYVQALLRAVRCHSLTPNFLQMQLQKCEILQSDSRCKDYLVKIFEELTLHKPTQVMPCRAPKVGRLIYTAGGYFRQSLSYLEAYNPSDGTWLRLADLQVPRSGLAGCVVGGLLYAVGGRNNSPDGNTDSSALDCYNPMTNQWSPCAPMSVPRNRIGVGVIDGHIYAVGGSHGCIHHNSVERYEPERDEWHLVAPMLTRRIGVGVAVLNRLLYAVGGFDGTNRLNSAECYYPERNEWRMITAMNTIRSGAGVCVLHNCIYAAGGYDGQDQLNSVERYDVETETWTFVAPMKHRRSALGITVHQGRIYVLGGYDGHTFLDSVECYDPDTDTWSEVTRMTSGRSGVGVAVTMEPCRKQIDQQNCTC
Regarding `O=C1c2ccccc2C(=O)N1CC1c2ccccc2CCN1C(=O)Cc1ccccc1` (stereo not drawn), the max delta Tm was 0.259 °C (inactive).

The assay is the same for the next values; noted with them: Recombinant Keap1 Kelch domain, Sypro Orange, at 0.16 µM, top dose 38 µM, stronger effect = higher value.
Turning to `Cc1cc(C)c(S(=O)(=O)Nc2nc(NCCO)nc3ccccc23)c(C)c1`, the max delta Tm is 0.147 °C (inactive). Same read-out and setting: the result for `O=C(NC[C@@H]1c2ccccc2CCN1C(=O)[C@@H]1CCCC[C@@H]1C(=O)O)c1ccccc1` reads 0.132 °C (inactive); that for `O=C(NCCCN1CCOCC1)c1ccccc1C(=O)NC[C@@H]1c2ccccc2CCN1C(=O)C1CCCCC1C(=O)O` (stereo partly drawn), 0.217 °C (inactive).

For the compound `O=C(O)[C@H]1CCCC[C@H]1C(=O)N1CCc2ccccc2[C@H]1CNc1nc(Cl)nc2ccccc12`, the max delta Tm is 0.129 °C (inactive). Same read-out and setting: as for `O=C(O)c1ccccc1C(=O)NC[C@@H]1c2ccccc2CCN1C(=O)[C@@H]1CCCC[C@@H]1C(=O)O`, the figure is -0.037 °C (inactive); as for `O=C(O)[C@H]1CCCC[C@H]1C(=O)NC(CN1C(=O)c2ccccc2C1=O)c1ccccc1` (stereo partly drawn), 0.154 °C (inactive); as for `O=C1c2ccccc2C(=O)N1C[C@@H]1c2ccccc2CCN1C(=O)OCc1ccccc1`, -0.028 °C (inactive). On the same count and under the same terms, as for `COC(=O)C1CCCCC1C(=O)N1CCc2ccccc2C1CN1C(=O)c2ccccc2C1=O` (stereo not drawn), the figure is 0.175 °C (inactive); as for `O=C(O)[C@H]1CCCC[C@H]1C(=O)N1CCC2=C(CCCC2)C1CN1C(=O)c2ccccc2C1=O` (stereo partly drawn), 0.172 °C (inactive). On the same count and under the same terms, as for `O=C(O)C1CCCCC1C(=O)N1CCc2ccccc2[C@H]1C(=O)NCCc1ccccc1` (stereo partly drawn), the figure is 0.168 °C (inactive); as for `O=C(O)[C@H]1CCCC[C@H]1C(=O)N1CCc2ccccc2C1` (racemic), -0.041 °C (inactive); as for `Cc1cc(C)c(S(=O)(=O)Nc2nc(N(C)C)nc3ccccc23)c(C)c1`, 0.107 °C (inactive).

Staying with this assay, now noted: Recombinant Keap1 Kelch domain, Sypro Orange, at 0.3 µM, top dose 38 µM, stronger effect = higher value.
For the compound `O=S(=O)(Nc1nc(NCC2CCCCC2)nc2ccccc12)c1ccccc1`, the max delta Tm is 0.21 °C (inactive). As for `O=C(O)C1CCCCC1C(=O)NCC1c2ccccc2CCN1C(=O)Cc1ccccc1` (stereo not drawn), the max delta Tm was 0.052 °C (inactive).

In the case of `COC(=O)CNc1nc(NS(=O)(=O)c2c(C)cc(C)cc2C)c2ccccc2n1`, the max delta Tm is 0.26 °C (inactive).

Regarding `Cc1ccc(S(=O)(=O)NNc2nc(NCC(N)=O)nc3ccccc23)cc1`, the max delta Tm is 0.22 °C (inactive).

In the case of `COc1ccccc1CCNC(=O)[C@@H]1c2ccccc2CCN1C(=O)C1CCCCC1C(=O)O` (stereo partly drawn), the max delta Tm was 0.192 °C (inactive).

The same assay, now with this note: Recombinant Keap1 Kelch domain, Sypro Orange, at 0.6 µM, top dose 38 µM, stronger effect = higher value.
Regarding `O=C(NC[C@@H]1c2ccccc2CCN1C(=O)[C@@H]1CCCC[C@@H]1C(=O)O)OCC1c2ccccc2-c2ccccc21`, the max delta Tm was 0.138 °C (inactive).

On to `CCOC(=O)Cc1nc(NS(=O)(=O)c2c(C)cc(C)cc2C)c2ccccc2n1`, for which the max delta Tm was 0.029 °C (inactive).

For `COC(=O)[C@@H]1CCCC[C@@H]1C(=O)N1CCc2ccccc2[C@@H]1CN1C(=O)c2ccccc2C1=O`, the max delta Tm was -0.035 °C (inactive). Regarding `C=CC(=O)NC[C@@H]1c2ccccc2CCN1C(=O)[C@@H]1CCCC[C@@H]1C(=O)O`, the max delta Tm was 0.229 °C (inactive). Same read-out and setting: the result for `CC(C)CNc1nc(NS(=O)(=O)c2ccccc2)c2ccccc2n1` reads 0.095 °C (inactive). As to `O=C(O)[C@H]1CCCC[C@H]1C(=O)N1CCc2ccccc2C1CCN1C(=O)c2ccccc2C1=O` (stereo partly drawn), the max delta Tm is 0.157 °C (inactive) and 0.069 °C (inactive).

Still in this assay, the particulars now being: Recombinant Keap1 Kelch domain, Sypro Orange, at 1.2 µM, top dose 38 µM, stronger effect = higher value.
As for `COC(=O)[C@H]1CCCC[C@H]1C(=O)N1CCc2ccccc2[C@H]1CN1C(=O)c2ccccc2C1=O`, the max delta Tm is -0.022 °C (inactive).

Turning to `Cc1ccc(S(=O)(=O)NNc2nc(N3CC(O)CC3C(=O)O)nc3ccccc23)cc1` (stereo not drawn), the max delta Tm was 0.172 °C (inactive). Same read-out and setting: as for `COC(=O)[C@@H]1CCCC[C@@H]1C(=O)N1CCc2ccccc2[C@H]1CN1C(=O)c2ccccc2C1=O`, the figure is -0.023 °C (inactive); as for `Cc1cc(C)c(S(=O)(=O)Nc2ncnc3ccccc23)c(C)c1`, 0.086 °C (inactive); as for `O=C1c2ccccc2C(=O)N1C[C@H]1NCCc2ccccc21`, 0.003 °C (inactive).

Still in this assay, the particulars now being: Recombinant Keap1 Kelch domain, Sypro Orange, at 2.6 µM, top dose 38 µM, stronger effect = higher value.
As for `O=C(Oc1cc(CN2C(=O)c3ccccc3C2=O)c2ccccc2[n+]1[O-])c1cccc(Cl)c1`, the max delta Tm is 0.062 °C (inactive).

In the case of `O=C(O)C1CCCCC1C(=O)Nc1ccccc1CN1C(=O)c2ccccc2C1=O` (stereo not drawn), the max delta Tm is 0.138 °C (inactive).

Turning to `CCOC(=O)C(C(=O)OCC)c1nc(NS(=O)(=O)c2c(C)cc(C)cc2C)c2ccccc2n1`, the max delta Tm was 0.045 °C (inactive). Still for that read-out and setting: as for `O=C(O)C1CCCCC1C(=O)N1CCCCC1CN1C(=O)c2ccccc2C1=O` (stereo not drawn), the figure is -0.027 °C (inactive). Still for that read-out and setting: the result for `COc1ccc(CCN=C2C=C(NS(=O)(=O)c3c(C)cc(C)cc3C)c3ccccc3C2=O)cc1` reads 0.288 °C (inactive); that for `Cc1cc(C)c(S(=O)(=O)Nc2nc(C(C(=O)OC(C)C)C(=O)C(F)(F)F)nc3ccccc23)c(C)c1` (stereo not drawn), 0.113 °C (inactive). The same measure, in the same setting: as for `O=C(O)C1CCCCC1C(=O)N1CCc2ccccc2[C@H]1C(=O)NC12CC3CC(CC(C3)C1)C2` (stereo partly drawn), the figure is -0.05 °C (inactive).

Still in this assay, the particulars now being: Recombinant Keap1 Kelch domain, Sypro Orange, at 5 µM, top dose 38 µM, stronger effect = higher value.
For the compound `O=C1c2ccccc2C(=O)N1CC1=NCCc2ccccc21`, the max delta Tm is -0.008 °C (inactive).

The same assay, now with this note: Recombinant Keap1 Kelch domain, Sypro Orange, at 10 µM, top dose 38 µM, stronger effect = higher value.
Turning to `O=C(O)CCCC(=O)N1CCc2ccccc2C1CN1C(=O)c2ccccc2C1=O` (stereo not drawn), the max delta Tm is 0.13 °C (inactive). The same measure, in the same setting: the result for `O=C(O)CC(=O)N1CCc2ccccc2C1CN1C(=O)c2ccccc2C1=O` (stereo not drawn) reads -0.045 °C (inactive). Take `C[C@H](NC(=O)C1CCCC[C@H]1C(=O)O)c1ccccc1` (mixture of isomers): the max delta Tm was -0.003 °C (inactive). For the compound `Cc1cc(C)c(S(=O)(=O)Nc2cc(C(C(=O)OCc3ccccc3)C(=O)OCc3ccccc3)c(O)c3ccccc23)c(C)c1`, the max delta Tm was 0.088 °C (inactive).

Still in this assay, the particulars now being: Recombinant Keap1 Kelch domain, Sypro Orange, at 19.5 µM, top dose 19.5 µM, stronger effect = higher value.
In the case of `Cc1cc(C)c(S(=O)(=O)Nc2cc(C(C(=O)OC(C)C)C(=O)C(F)(F)F)c(O)c3ccccc23)c(C)c1` (stereo not drawn), the max delta Tm was 11.4 degrees C.

Still in this assay, the particulars now being: Recombinant Keap1 Kelch domain, Sypro Orange, at 19.5 µM, top dose 38 µM, stronger effect = higher value.
As to `Cc1ccc(S(=O)(=O)NC[C@@H]2c3ccccc3CCN2C(=O)[C@@H]2CCCC[C@@H]2C(=O)O)c(C)c1`, the max delta Tm was 0.174 °C (inactive).

With `COc1ccccc1CCNC(=O)[C@@H]1c2ccccc2CCN1C(=O)C1CCCCC1C(=O)O` (stereo partly drawn), the max delta Tm was 0.102 °C (inactive).

Staying with this assay, now noted: Recombinant Keap1 Kelch domain, Sypro Orange, at 38 µM, top dose 38 µM, stronger effect = higher value.
With `O=C(O)C1CCCCC1C(=O)N1CCc2ccccc2C1CN1Cc2ccccc2C1=O` (stereo not drawn), the max delta Tm was 5.56 degrees C. Still for that read-out and setting: as for `O=C(O)/C=C\C(=O)N1CCc2ccccc2C1CN1C(=O)c2ccccc2C1=O` (stereo not drawn), the figure is 1.14 degrees C. On the same count and under the same terms, the result for `O=C(NC[C@@H]1c2ccccc2CCN1C(=O)[C@@H]1CCCC[C@@H]1C(=O)O)c1ccccc1CO` reads 1.92 degrees C; that for `COC(=O)C(C(=O)OC)c1cc(NS(=O)(=O)c2c(C)cc(C)cc2C)c2ccccc2c1O`, 3.82 degrees C; that for `O=C(O)[C@@H]1CCCN1C(=O)N1CCc2ccccc2[C@H]1CN1C(=O)c2ccccc2C1=O`, 2.21 degrees C. Same read-out and setting: the result for `O=C(O)[C@H]1C2C=CC(C2)[C@H]1C(=O)N1CCc2ccccc2C1CN1C(=O)c2ccccc2C1=O` (stereo partly drawn) reads 1.86 degrees C; that for `NC(=O)[C@H]1CCCC[C@H]1C(=O)N1CCc2ccccc2[C@H]1CN1C(=O)c2ccccc2C1=O`, 1.34 degrees C; that for `O=C(Cc1ccccc1)NC[C@@H]1c2ccccc2CCN1C(=O)[C@@H]1CCCC[C@@H]1C(=O)O`, 1.66 degrees C. For `O=C(NC[C@@H]1c2ccccc2CCN1C(=O)[C@@H]1CCCC[C@@H]1C(=O)O)c1ccc(CCl)cc1`, the max delta Tm was 0.364 °C (inactive). Same read-out and setting: the result for `C[C@@H](NC(=O)C1CCCC[C@H]1C(=O)O)c1ccccc1` (mixture of isomers) reads 0.005 °C (inactive). Take `Cc1ccc(S(=O)(=O)Nc2cc(C(C(=O)OC(C)C)C(=O)C(F)(F)F)c(O)c3ccccc23)c(C)c1` (stereo not drawn): the max delta Tm was 9.26 degrees C.

`O=C(O)Cc1ccccc1C(=O)N1CCc2ccccc2[C@H]1CN1C(=O)c2ccccc2C1=O`: the max delta Tm is 4.85 degrees C. `O=C(NCCc1ccccc1)c1ccccc1C(=O)NC[C@@H]1c2ccccc2CCN1C(=O)C1CCCCC1C(=O)O` (stereo partly drawn): the max delta Tm is 2.14 degrees C. Same read-out and setting: as for `O=C(O)C1CCCCC1C(=O)N1CCc2ccccc2C1CN1C(=O)[C@H]2CCCC[C@H]2C1=O` (stereo partly drawn), the figure is 2.32 degrees C; as for `O=C(O)[C@H]1CCCC[C@H]1C(=O)N1CCc2ccccc2[C@H]1CNS(=O)(=O)c1ccc([N+](=O)[O-])cc1`, 0.907 °C (inactive). On the same count and under the same terms, the result for `O=C(O)CCC(=O)N1CCc2ccccc2C1CN1C(=O)c2ccccc2C1=O` (stereo not drawn) reads 0.462 °C (inactive); that for `O=C(O)[C@H]1CCCC[C@H]1C(=O)N1CCC2=C(CCCC2)C1CN1C(=O)c2ccccc2C1=O` (stereo partly drawn), 2.69 degrees C.

With `NC(=O)c1ccccc1C(=O)NC[C@@H]1c2ccccc2CCN1C(=O)[C@@H]1CCCC[C@@H]1C(=O)O`, the max delta Tm is 0.771 °C (inactive). On the same count and under the same terms, the result for `O=C(NCCO)c1ccccc1C(=O)NC[C@@H]1c2ccccc2CCN1C(=O)C1CCCCC1C(=O)O` (stereo partly drawn) reads 1.77 degrees C; that for `CC(C)OC(=O)C(C(=O)C(F)(F)F)c1cc(NS(=O)(=O)c2ccccc2)c2ccccc2c1O` (stereo not drawn), 4.43 degrees C; that for `O=C(O)C1CCCCC1C(=O)N1CCc2ccccc2C1CN1C(=O)c2ccccc2S1(=O)=O` (stereo not drawn), 3.85 degrees C. As to `Cc1ccccc1S(=O)(=O)Nc1cc(C(C(=O)OC(C)C)C(=O)C(F)(F)F)c(O)c2ccccc12` (stereo not drawn), the max delta Tm was 7.77 degrees C.

For the compound `Cc1ccc(S(=O)(=O)Nc2cc(C(C(=O)OC(C)C)C(=O)C(F)(F)F)c(O)c3ccccc23)cc1` (stereo not drawn), the max delta Tm was 6.81 degrees C.

In the case of `O=C(NC[C@@H]1c2ccccc2CCN1C(=O)[C@@H]1CCCC[C@@H]1C(=O)O)c1ccc(CN2CCOCC2)cc1`, the max delta Tm was 0.592 °C (inactive).
